# Values of other authors in patent US20060246141A1, “Nanoparticulate lipase inhibitor formulations” (Elan Pharma International, Limited, priority 2005, published 2006).
# Like-named read-outs stand apart in the source and are kept apart here.
# Key:
# [1] = physiological pH range
# [2] = tested on: gastric and pancreatic lipases; conditions: recommended therapeutic dose of 120 mg three times a day
smiles,measurement,setting,value
"CCCCCCCCCCCC(CC1OC(=O)[C@H]1CCCCCC)OC(=O)C(CC(C)C)NC=O (stereo in doubt) [Orlistat, (S)-2-formylamino-4-methyl-pentanoic acid (S)-1-[[(2S, 3S)-3-hexyl-4-oxo-2-oxetanyl]methyl]-dodecyl ester]",Solubility,in chloroform,freely soluble
same,Solubility,in methanol and ethanol,very soluble
same,Solubility,in water,practically insoluble
same,pKa,[1],no pKa within the physiological pH range
same,Inhibition of dietary fat absorption,[2],approximately 30%
